Patent US20090291934A1, “Method for decomposing an allergen” (Shinshu TLO Co., Ltd., priority 2003, published 2009)

How the values were obtained:
guinea pig skin [1] = assay: Toxicity experiment with rays in guinea pig (Morikawa et al. method); format: in vivo, guinea pig (Crj; Hartley); settings: 0.03 mL of 0.05% 8-methoxypsoralen, UV, all spread parts
Description: In the comparative group of the medium, the clipped backs of the guinea pigs were open spread by 0.03 mL of dimethylsulfoxide.
As the positive comparative group, the clipped backs of the guinea pigs were open spread by 0.03 mL of 0.05% 8-methoxypsoralen. After 30 minutes, they were exposed to ultraviolet rays (about 11.2 Joules/cm^2). The reactions on the skins were evaluated at 24 and 48 hours after exposing to rays.

[2] = tested on: fibroblasts derived from Chinese hamster lung (CHL/IU cell); assay: Experiment on chromosome aberration by using mammalian cells; format: cell-based; settings: positive comparative group, short time
Description: The experiment on chromosome aberration was examined as follows. The experiment doses of the test material were determined by the inhibition experiment of increasing cells. As a result of the inhibition experiment of increasing cells, the concentration of test material in 50% inhibition experiment of increasing cells was 5.0 mg/mL or more in −S9mix method treating in a short time. And the concentration thereof was 0.840 mg/mL in +S9mix method treating in a short time.
As the negative comparative, the non-treating group and the comparative group of the medium were prepared, and as the positive comparative, the mitomycin C (0.05 μg/mL)-treating group was prepared.
Under this experiment, colcemid (available from GIBCO/Lot No. 1125546) was added to laboratory dishes for chromosome specimens to the last concentration of 0.2 μg/mL at 2 hours before making specimens so that cell divisions were stopped in the middle of the division period. After 2 hours, the culture solutions in the laboratory dishes were moved into a conical bottom tube. […] Furthermore, the laboratory dishes prepared for the cell increasing rate were fixed and stained in the same method as the inhibition experiment of increasing cells described above, and the cell increasing rate was measured. […]

guinea pig skin [3] = settings: sensitized with 0.1% DNCB, induced by 0.1% DNCB, 48 hours after inducing
guinea pig skin [4] = assay: Sensitization experiment with rays in guinea pig skin (Adjuvant and Strip method); format: in vivo, guinea pig (Crj; Hartley); settings: sensitized with 5% 6-MC
Description: The procedures were repeated for 5 days and the guinea pigs were sensitized with rays.
In the comparative group of the medium, the guinea pigs were injected with to sensitize and induced by dimethylsulfoxide. […] As the positive comparative group, the guinea pigs were injected with 5% 6-methylcoumarin (6-MC) to sensitize, and induced by 1% 6-MC.

Tick antigen Derf II = target: T1, Tick antigen Derf II (Dermatophagoides farinae, UniProt Q00855); assay: Two-dimensional electrophoresis of tick allergen with and without Fe-Pc-COOK; format: biochemical; settings: Derf II sol. with 0.1 or 0.5 w/v % Fe-Pc-COOK (A) vs tick allergen only (B), silver stain
T1 construct: purchased ASAHI BREWERIES, LTD
T1 sequence (Q00855 18-146): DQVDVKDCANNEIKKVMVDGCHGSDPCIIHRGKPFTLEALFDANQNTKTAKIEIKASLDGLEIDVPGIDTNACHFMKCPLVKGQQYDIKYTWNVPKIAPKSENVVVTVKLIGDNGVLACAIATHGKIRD
Description: Tick antigen Derf II (available from ASAHI BREWERIES, LTD.) was chosen between the allergens, and we compared electrophoresis of the tick allergen containing iron phthalocyanine tetracarboxylic acid with that of the allergen only.
Iron phthalocyanine tetracarboxylic acid potassium salt (Fe-Pc-COOK) aqueous solution and Derf II solution, which appropriate concentrations (w/v %) were mentioned in Table 4, were mixed with swelling stock solution containing IPG (Immobilized pH Gradient) buffer (8 mol/L Urea, 2 w/v % CHAPS, 2% IPG Buffer, appropriate amount of Bromophenol blue, and distilled water) to prepare experimental solutions of preparing examples 1-4 in Table 4.
Whereas Derf II solution was mixed with swelling stock solution containing IPG buffer to prepare experimental solutions of comparative preparing examples 1-4 in Table 4.
One-dimensional electrophoresis gel films (Strip) of Strip pH4-7 and Strip pH 3-10.5 were prepared, soaked in each experimental solution containing appropriate amount of silicon oil for preventing dry, and treated for 10 hours. After being pulled up and washed, each Strip was subjected to one-dimensional electrophoresis containing silicon oil for preventing dry for 16 hours. […]

rabbit eye mucosa = assay: Irritation experiment on rabbit eye mucosa; format: in vivo, rabbit (Japanese White); settings: for irritation on the rabbit eye mucosa (Kay and Calandra classification): 100 mg powder
Description: Male rabbits at the age of 10 weeks (Japanese White, Kb1:JW(SPF)) were prepared for a washed group (n=3) and a non-washed group (n=3). After pre-bred for 7 days, the rabbits were confirmed normality about changes of body weight and health condition. On the preceding day, they were confirmed about normality of eyes macroscopically and no injury of cornea by fluoresceine staining (fluor-paper, Lot No. 3990849 available from Wyeth-Ayerest Laboratories, USA) using slitlamp (type SL-5: available from Kowa Company, Ltd.) to prepare for experiment.
100 mg of iron phthalocyanine tetracarboxylic acid powder, which was screened through a mesh having 300 μm of aperture once, was put into right conjunctiva of each rabbit, and upper and lower eyelids were gently kept closed for about one second. In the washed group, to remove powder, the conjunctiva was washed with 230-330 mL of lukewarm water at 30 seconds after putting to remove the powder. The left conjunctiva of each rabbit wasn't treated in both groups. The cornea, iris and the conjunctiva in both groups were compared with non-treated eye as reference at 1, 24, 48 and 72 hours after putting. […] The observation results were scored following Draize scoring criteria (Appendix 3), and the irritation was evaluated following Kay and Calandra classification (Appendix 4).

rats = assay: Toxicity experiment by oral injection of solution dissolving the decomposer to rats (for once)
Description: They were divided into each group according to their body weights measured before housed by a continuous stratified sampling method. Extra rats caused by the method were excluded from the experiment and euthanized.
Following the medical toxicity test guideline, the amount of injection was determined 2000 mg/kg, technical upper limit of oral injection. A comparative group, which a comparative material of purified water in the Japanese Pharmacopoeia was injected, was also prepared. 10 male rats and 10 female rats were divided into two groups respectively.
Their health conditions and life or death were observed continuously before the injection of the solution, at 5, 15, 30 minutes, 1, 2, and 4 hours after the injection, and once a day as from the following day. They were weighed before the injection of the solution, and at 9:00-12:00 on 1, 3, 7, 10, 14th day after the injection. After all the observations, their organs and tissues in heads, chests and abdomens were researched whether normal or not.

Question: For COc1c2occc2cc2ccc(=O)oc12 [8-methoxypsoralen], which skin action score (guinea pig skin [1]) is on record?
Answer: Its skin action score is 4.

Question: Which “appearance frequency of cells whose chromosomes were abnormal structurally” value ([2]; +S9mix method) does the source give for CN(C)N=O [DMN] here?
Answer: The value was 37.5%.

Question: With O=[N+]([O-])c1ccc(Cl)c([N+](=O)[O-])c1 [DNCB, 2,4-dinitrochlorobenzene] as the compound, how does the positive rate (guinea pig skin [3]) read?
Answer: The positive rate was 100%.

Question: What does the source list for Cc1ccc2oc(=O)ccc2c1 [Example 6-MC, 6-methylcoumarin]?
Answer: erythema score (guinea pig skin [4]; induced by 1% 6-MC and exposed to ultraviolet rays): 2-4; evaluation of sensitization with rays (guinea pig skin [4]; induced by 1% 6-MC, all guinea pigs): positive

Question: How did the “appearance frequency of cells whose chromosomes were abnormal structurally” value ([2]; -S9mix method) turn out when CO[C@@]12[C@H](COC(N)=O)C3=C(C(=O)C(C)=C(N)C3=O)N1C[C@@H]1N[C@@H]12 [MMC, mitomycin C] was run?
Answer: The value was 16%.

Question: “Iron phthalocyanine tetracarboxylic acid potassium salt” was tested. Which “effect on tick allergen spots in two-dimensional electrophoresis gel” value (Tick antigen Derf II) did it give?
Answer: Its value is “Disappearance of the spots between pH 5-6”.

Question: How did the “irritation on the rabbit eye mucosa (Kay and Calandra classification)” value (rabbit eye mucosa; non-washed group) turn out when “iron phthalocyanine tetracarboxylic acid” was run?
Answer: The value was “moderately irritating”.

Question: What about the “irritation on the rabbit eye mucosa (Kay and Calandra classification)” value (rabbit eye mucosa; washed group (washed 30 seconds after putting)) of the same compound?
Answer: Its value is “practically nonirritating”.

Question: And the “time by which reaction of the conjunctiva disappeared” value (rabbit eye mucosa; non-washed group)?
Answer: Its value is at most 10 days.

Question: And the “time by which reactions of the cornea and the iris disappeared” value (rabbit eye mucosa; non-washed group, after putting)?
Answer: Its value is at most 72 h.

Question: What about the “time by which slight red conjunctiva disappeared” value (rabbit eye mucosa; washed group, after putting) of the same compound?
Answer: The value was at most 24 h.

Question: And the “death during the experiment” value (rats; 2000 mg/kg oral once, observed 14 days)?
Answer: The value was “no male and female rat”.

Question: What about the minimum lethal dose (rats; oral once, male and female rats) of the same compound?
Answer: The minimum lethal dose was at least 2000 mg/kg.
